Source: patent publication US20020183365A1, “Method for treating fibrotic diseases or other indications IIIC” (priority 2000, published 2002)
Structures can show the parent of a compound that is named as a salt.

Tests used:
[1] = series exploring certain imidazolium compounds; cited from earlier work
Rats = test: Rat myocardial infarct model (coronary artery ligation), histological examination of hearts; type: in vivo; settings: daily intraperitoneal 10 mg/kg for 30 days before and 14 days after ligation; placebo 0.16±0.04 g; p=0.04
Protocol: Rats received a daily intraperitoneal dose of 10 mg/kg 3-[2-phenyl-2-oxoethyl]-4,5-dimethyl-thiazolium salt (compound A) (n=14) or placebo (n=15) for 30 days. The animals then underwent a thoracotomy and the left anterior descending coronary artery ligated. The chest was then closed and the animals allowed to recover for 14 days while continuing to be treated with compound A or placebo. The animals were then sacrificed and the hearts removed for histological examination. The weight of the infarcted tissue was 0.16±0.04 g for the placebo treated animals compared to 0.11±0.05 g for the compound A treated animals (p=0.04).

[2] = test system: elderly patients with pulse pressures greater than 60 mm Hg; test: Phase IIa clinical trial; type: in vivo, human
Description: When the heart pumps blood into the vascular system, the ability of the arteries to expand helps to push blood through the body. When arteries become stiff, as they do in the natural process of aging, the ability of the arteries to expand is diminished and also has consequences for the heart. The heart has to work harder to pump the blood into the stiff arteries, and eventually hypertrophies (enlarges in size) to accomplish this. A hypertrophied heart is an inefficient pump, and is one of the disorders that leads to congestive heart failure. […] The potential clinical benefit of this is to lessen the effort that the heart must expend to push blood throughout the body. The effect is also believed to contribute to preventing hypertrophy and subsequent inefficiency of the heart, which inefficiency would contribute to congestive heart failure.
Atherosclerosis is a disease that involves deposition of blood lipids in plaque in the arteries throughout the body. In coronary arteries, accumulation of plaque progressively leads to reduced coronary flow, with occlusion of the arteries causing focal death of cardiac tissue (myocardial infarction, heart attack). If the amount of tissue that dies is large enough, death ensures. […] Reducing local deposits of plaque should eventually lessen the risk of myocardial infarction and death due to heart attacks.
Pulse pressure is the difference between systolic and diastolic blood pressure. In a young human, systolic pressure is typically 120 mm Hg and diastolic pressure is 80 mm Hg, resulting in a pulse pressure of 40 mm Hg. With age, in many individuals pulse pressure increases, largely due to the increase in systolic pressure that results from stiff vessel disease. In individuals with pulse pressure greater than 60 mm Hg there is an increased risk of death from cardiovascular morbidities. […] This decrease in pulse pressure was believed to be due primarily to the effect of the agent on lowering the systolic blood pressure.

dog model for diabetes = test: Dog model for diabetes, ventricular elasticity; type: in vivo
Description: (§1) Cardiovascular risk correlates more closely with the systolic and the pulse pressure than with the diastolic pressure. In diabetic patients, the cardiovascular risk profile of diabetic patients is strongly correlated to duration of diabetes, glycemic control and blood pressure. Structural matrix proteins contribute to the function of vessels and the heart, and changes in the physical behavior of cardiovascular walls are believed to be important determinants of circulatory function. In elderly individuals, the loss of compliance in the aorta leads to isolated systolic hypertension, which in turn expands the arterial wall and thereby diminishes the dynamic range of elasticity.

[3] = test system: rodents, canines and primates; test: In vivo studies of vascular stiffening
Description: as §1

[4] = test system: collagen in cardiovascular tissues; test: Mass of collagen in cardiovascular tissues after treatment; settings: in vivo
Description: as §1

Type IV collagen = test: In situ hybridization studies, Type IV collagen
Description: as §1

TGFbeta = test: In situ hybridization studies, TGFbeta
Description: as §1

SMILES	glucose lowering effect [1]	weight of the infarcted tissue (Rats)	stiffness of arteries, as measured by the ratio of stroke volume (ml) to pulse pressure (mm Hg) ([2]; Phase IIa clinical trial)	amount of circulating triglycerides (lipids) ([2]; Phase IIa trial)	pulse pressure ([2]; Phase IIa trial, elderly patients with pulse pressures greater than 60 mm Hg, statistically significant)	end diastolic pressure, indicator of ventricular elasticity (dog model for diabetes)	end diastolic volume, indicator of ventricular elasticity (dog model for diabetes)	vascular stiffening [3]	mass of collagen in cardiovascular tissues [4]	expression of Type IV collagen (Type IV collagen)	expression of TGFbeta (TGFbeta)
Cc1ccc(C(=O)C[n+]2ccccc2)cc1.[Cl-] [1-[2-(4-methylphenyl)-2-oxoethyl]-pyridinium chloride]	inactive										
Cc1sc[n+](CC(=O)c2ccccc2)c1C [compound A, 3-[2-phenyl-2-oxoethyl]-4,5-dimethyl-thiazolium salt]		0.11 ± 0.05 g	showed an ability to reverse the stiffness of arteries	increased the amount of circulating triglycerides	reduced pulse pressure	returned to a value at about the mid-point between the disease impaired value and the value for control dogs	returned to a value at about the mid-point between the disease impaired value and the value for control dogs	substantially ameliorating vascular stiffening	reduction in the mass of collagen	reduces the expression	reduces the expression
